Laboratory results taken from PubChem BioAssay (NCI).
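Cells were grown in 96-well plates and exposed to each compound for 48 hours at five concentrations; endpoints were interpolated linearly between bracketing concentrations, or set to the highest concentration if not reached. GI50 is the concentration that inhibits growth by half. TGI: concentration producing complete growth inhibition.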

Assays:
Assay in all cases: NCI-60 cell line screen, 48 h
OVCAR-5 ovarian = tested on: OVCAR-5 ovarian
M14 melanoma = tested on: M14 melanoma
U251 CNS = tested on: U251 CNS
NCI/ADR-RES ovarian = tested on: NCI/ADR-RES ovarian
OVCAR-8 ovarian = tested on: OVCAR-8 ovarian
NCI-H226 lung = tested on: NCI-H226 lung
IGROV1 ovarian = tested on: IGROV1 ovarian
SF-539 CNS = tested on: SF-539 CNS
COLO 205 colon = tested on: COLO 205 colon
MDA-MB-435 = tested on: MDA-MB-435

Structure (SMILES): Cc1cccc2c1Oc1ccccc1C2NC(=O)c1ccc([N+](=O)[O-])cc1 (stereo not drawn)
- TGI (OVCAR-5 ovarian): > 100 µM
- TGI (M14 melanoma): > 100 µM
- TGI (U251 CNS): > 100 µM
- TGI (NCI/ADR-RES ovarian): > 100 µM
- TGI (OVCAR-8 ovarian): > 100 µM
- TGI (NCI-H226 lung): 63.9 µM
- TGI (IGROV1 ovarian): > 100 µM

Structure (SMILES): CC1=C2C(=O)[C@H]3[C@@H](CC=C4C[C@@H](O)CC[C@@]43C)[C@@H]2CC[C@]12O[C@@H]1C[C@H](C)CN[C@H]1[C@H]2C
- TGI (OVCAR-5 ovarian): > 100 µM
- TGI (M14 melanoma): > 60.4 µM
- TGI (U251 CNS): > 55.5 µM
- TGI (NCI/ADR-RES ovarian): > 100 µM
- TGI (SF-539 CNS): > 61.6 µM
- TGI (OVCAR-8 ovarian): > 69.1 µM
- TGI (NCI-H226 lung): > 61 µM
- TGI (COLO 205 colon): > 100 µM
- TGI (IGROV1 ovarian): > 96.4 µM
- TGI (MDA-MB-435): > 100 µM

Structure (SMILES): COc1nc(SC)nc2c1cnn2C1OC(C(O)CO)C(OC)C1O (stereo not drawn)
- TGI (OVCAR-5 ovarian): > 100 µM
- TGI (U251 CNS): > 100 µM
- TGI (NCI/ADR-RES ovarian): > 100 µM
- TGI (SF-539 CNS): > 100 µM
- TGI (OVCAR-8 ovarian): > 100 µM
- TGI (NCI-H226 lung): > 100 µM
- TGI (COLO 205 colon): > 100 µM
- TGI (IGROV1 ovarian): > 100 µM

Structure (SMILES): CCCCC(C)C1CCC2(C)C=CC(=O)C(C)=C2C1O (stereo not drawn)
- TGI (OVCAR-5 ovarian): > 100 µM
- TGI (U251 CNS): > 100 µM
- TGI (NCI/ADR-RES ovarian): > 100 µM
- TGI (SF-539 CNS): > 100 µM
- TGI (OVCAR-8 ovarian): > 100 µM
- TGI (NCI-H226 lung): > 100 µM
- TGI (COLO 205 colon): > 100 µM
- TGI (IGROV1 ovarian): > 100 µM

Structure (SMILES): CCC1=CC2CN3CCc4c([nH]c5ccccc45)C(C(=O)OC)(C2)C13 (stereo not drawn)
- TGI (OVCAR-5 ovarian): 24.3 µM
- TGI (U251 CNS): 117 µM
- TGI (NCI/ADR-RES ovarian): 110 µM
- TGI (SF-539 CNS): 92.8 µM
- TGI (OVCAR-8 ovarian): 14.7 µM
- TGI (NCI-H226 lung): 23.4 µM
- TGI (COLO 205 colon): 80.6 µM
- TGI (IGROV1 ovarian): 105 µM

Structure (SMILES): NCCCNc1nc2ccccc2c2c(=O)c3cc(C(F)(F)F)ccc3sc12
- GI50 (OVCAR-5 ovarian): 1730 nM
- TGI (OVCAR-5 ovarian): 3.15 µM
- GI50 (M14 melanoma): 1640 nM
- TGI (M14 melanoma): 3.12 µM
- GI50 (SF-539 CNS): 1710 nM
- TGI (SF-539 CNS): 3.16 µM
- GI50 (MDA-MB-435): 1.65 µM
- TGI (MDA-MB-435): 3.06 µM

Structure (SMILES): Cc1[nH]c(=O)nc(N/N=C/c2ccc(Cl)cc2)c1C(=O)NC(C)(CO)CO
- TGI (OVCAR-5 ovarian): > 100 µM
- TGI (M14 melanoma): > 100 µM
- TGI (U251 CNS): > 100 µM
- TGI (NCI/ADR-RES ovarian): > 100 µM
- TGI (OVCAR-8 ovarian): > 100 µM
- TGI (NCI-H226 lung): > 100 µM
- TGI (COLO 205 colon): > 100 µM
- TGI (IGROV1 ovarian): > 100 µM
- TGI (MDA-MB-435): > 100 µM

Structure (SMILES): CC1(C23CC4CC(CC(C4)C2)C3)n2c(=O)n(-c3ccccc3)c(=O)n2C1(C)C12CC3CC(CC(C3)C1)C2 (stereo not drawn)
- TGI (OVCAR-5 ovarian): > 100 µM
- TGI (M14 melanoma): > 100 µM
- TGI (U251 CNS): > 100 µM
- TGI (NCI/ADR-RES ovarian): > 100 µM
- TGI (SF-539 CNS): > 100 µM
- TGI (OVCAR-8 ovarian): > 100 µM
- TGI (NCI-H226 lung): > 100 µM
- TGI (COLO 205 colon): > 100 µM
- TGI (IGROV1 ovarian): > 100 µM
- TGI (MDA-MB-435): > 100 µM

Structure (SMILES): CN1C2CC(=O)CC1[C@H](O)[C@@H]2O
- TGI (M14 melanoma): > 100 µM
- TGI (U251 CNS): > 100 µM
- TGI (NCI/ADR-RES ovarian): > 100 µM
- TGI (OVCAR-8 ovarian): > 100 µM
- TGI (NCI-H226 lung): > 100 µM
- TGI (COLO 205 colon): > 100 µM
- TGI (MDA-MB-435): > 100 µM

Structure (SMILES): CCOC(=O)c1csc(NC(=O)CCN2CCCCC2)n1
- TGI (OVCAR-5 ovarian): > 100 µM
- TGI (M14 melanoma): > 100 µM
- TGI (U251 CNS): > 100 µM
- TGI (NCI/ADR-RES ovarian): > 100 µM
- TGI (SF-539 CNS): > 100 µM
- TGI (OVCAR-8 ovarian): > 100 µM
- TGI (COLO 205 colon): > 100 µM
- TGI (IGROV1 ovarian): > 100 µM
- TGI (MDA-MB-435): > 100 µM

Structure (SMILES): COCC1CCCN1c1ccc(/C=C(/C#N)C(N)=S)cc1 (stereo not drawn)
- GI50 (OVCAR-5 ovarian): > 100000 nM
- TGI (OVCAR-5 ovarian): > 100 µM
- GI50 (M14 melanoma): > 100000 nM
- TGI (M14 melanoma): > 100 µM
- GI50 (U251 CNS): > 100 µM
- TGI (U251 CNS): > 100 µM
- GI50 (NCI/ADR-RES ovarian): > 100 µM
- TGI (NCI/ADR-RES ovarian): > 100 µM
- GI50 (SF-539 CNS): > 100000 nM
- TGI (SF-539 CNS): > 100 µM
- GI50 (OVCAR-8 ovarian): > 100 µM
- TGI (OVCAR-8 ovarian): > 100 µM
- GI50 (NCI-H226 lung): 34.6 µM
- TGI (NCI-H226 lung): > 100 µM
- GI50 (COLO 205 colon): > 100 µM
- TGI (COLO 205 colon): > 100 µM
- GI50 (MDA-MB-435): 15 µM
- TGI (MDA-MB-435): > 100 µM

Structure (SMILES): COc1cc(C2C(Cl)C(=O)N2NC(=O)c2ccccc2O)ccc1O (stereo not drawn)
- TGI (M14 melanoma): > 100 µM
- TGI (U251 CNS): > 100 µM
- TGI (SF-539 CNS): > 100 µM
- TGI (OVCAR-8 ovarian): > 100 µM
- TGI (NCI-H226 lung): > 100 µM
- TGI (IGROV1 ovarian): > 100 µM
